Assay results from ChEMBL document CHEMBL3044559, “Synthesis and antidepressant-like action of N-(2-hydroxyethyl) cinnamamide derivatives in mice” (2011).

What was measured:
Mus musculus [1] = test: Antidepressant like activity in Mus musculus Kunming (mouse) assessed as reduction of immobility time at 40 mg/kg, po measured during last 4 min of 6 min test by tail suspension test (reference value: 105.7 +/- 10.03 sec); assay type: functional
Mus musculus [2] = test: Antidepressant like activity in Mus musculus Kunming (mouse) assessed as reduction of immobility time at 40 mg/kg, po measured during last 4 min of 6 min test by forced swimming test (reference value: 183.3 +/- 12.67 sec); assay type: functional

SMILES	Time (Mus musculus [1]) [s]	Time (Mus musculus [2]) [s]
CN(C)c1ccc(/C=C/C(=O)NCCO)cc1	64.67	105.5
O=C(/C=C/c1ccc(Cl)cc1)NCCO	76.67	168
COc1ccc(/C=C/C(=O)NCCO)cc1OC	39.33	157.8
COc1ccc(/C=C/C(=O)NCCO)cc1	31.33	167.5
COc1cc(/C=C/C(=O)NCCO)ccc1O	45	55
O=C(/C=C/c1ccccc1)NCCO [IDROCILAMIDE]	25	101.2
COc1ccccc1/C=C/C(=O)NCCO	38.67	159.1
COc1ccc(/C=C/C(=O)NCCO)c(OC)c1	39.67	143.5
O=C(/C=C/c1ccc(O)cc1)NCCO	71	133.3
O=C(/C=C/c1ccc(F)cc1)NCCO	75	130.8
O=C(/C=C/c1ccccc1O)NCCO	44.83	146.7
O=C(/C=C/c1cccc(O)c1)NCCO	54	102.8
COc1cc(/C=C/C(=O)NCCO)cc(OC)c1OC	76.33	165.5
O=C(/C=C/c1ccc(Br)cc1)NCCO	57	119.7
COc1cccc(/C=C/C(=O)NCCO)c1	43.33	141
CNCCC(Oc1ccc(C(F)(F)F)cc1)c1ccccc1 (stereo unspecified) [FLUOXETINE]	14.17	
